Assay [1] concerns Rattus norvegicus. Put plainly: Compound was tested for the in vivo antagonist activity calculated from ED50 value, by estimating at 25 mL the mean blood volume in a 300-g rat and expressed as molarity. The assay is classed as functional.
Assay [2] concerns Rattus norvegicus. Kind of assay: In vivo antagonistic effect on gastric acid secretion in the perfused rat stomach. The assay is classed as functional.

Peptide text beside a SMILES is read from it. * marks the point of attachment. Cbz = O=C(OCc1ccccc1)*; Boc = CC(C)(C)OC(=O)*

This passage reports Activity and ED50 results from ChEMBL document CHEMBL1122533 (J Med Chem, 1984).

What is called ED50 is the midpoint of the dose-response relation. In the case of `CSCC[C@H](NC(=O)[C@H](Cc1c[nH]c2ccccc12)NC(=O)CNC(=O)OC(C)(C)C)C(=O)N[C@@H](CC(=O)O)C(N)=O` (Boc-GWMD-NH2), in the assay on Rattus norvegicus [1], the Activity is 0.0001. Besides, the ED50 in the assay on Rattus norvegicus [2] was determined as 5 mg/kg.
The corresponding values for `CSCC[C@H](NC(=O)[C@H](Cc1c[nH]c2ccccc12)NC(=O)OC(C)(C)C)C(=O)N[C@@H](CC(=O)O)C(N)=O` (Boc-Trp-Met-Asp-NH2) are 0.00016 and 7.5 mg/kg.
For the compound `CSCC[C@H](NC(=O)[C@H](Cc1c[nH]c2ccccc12)NC(=O)CNC(=O)[C@H](Cc1ccc(O)cc1)NC(=O)OC(C)(C)C)C(=O)N[C@@H](CC(=O)O)C(N)=O` (Boc-YGWMD-NH2), the Activity in the assay on Rattus norvegicus [1] is recorded as 3.1e-05. In addition, in the assay on Rattus norvegicus [2], the ED50 was determined as 2 mg/kg.
The corresponding values for `CSCC[C@H](NC(=O)[C@H](Cc1c[nH]c2ccccc12)NC(=O)CNC(=O)[C@H](Cc1ccc(O)cc1)NC(=O)[C@H](C)NC(=O)[C@H](CCC(=O)O)NC(=O)OCc1ccccc1)C(=O)N[C@@H](CC(=O)O)C(N)=O` (Cbz-EAYGWMD-NH2) are 1.8e-05 and 1.5 mg/kg.
